Source: publication PMC12124432, “Antimicrobial Peptide‐Peptoid Macrocycles from the Polymyxin B2 Chemical Space” (Angewandte Chemie (International Ed. in English), 2025)
Bridge positions count the residues as written; N and C are the ends. Square brackets hold non-standard residues; d marks the D form. Peptide text beside a SMILES is read from it. * marks the point of attachment. N(3-phenylpropyl)Gly = O=C(O)CNCCCc1ccccc1; Gly(NCH2CH2Ph) = O=C(O)CNCCc1ccccc1; Gly(N-2-aminoethyl) = NCCNCC(=O)O; Gly(N(CH2)3NH2) = NCCCNCC(=O)O; Heptanoyl = CCCCCCC(=O)*; Octanoyl = CCCCCCCC(=O)*; Dab = NCC[C@H](N)C(=O)O; NPrGly = CCCNCC(=O)O

Tested on: P. aeruginosa PAO1
Experiment: Transmission electron microscopy (TEM)
Type: cell-based, Pseudomonas aeruginosa
Conditions: 10 × MIC, 12.5% MH, 2 h incubation at 37 °C, OD600 = 0.5
Experimental: Specific Fluorescence Enhacement
Concentration of Dansyl-PMB (μM)
Figure S9. Extracted data from the specific fluorescence enhancement data (Figure S8) from DsPMB at 485 nm. The plateau is reached at approximately 2.5 µM. Each data point represent mean ± SD, n =3.
15. Transmission Electron Microscopy (TEM)
Transmission electron microscopy was evaluated at a high cell density (10^8 CFU) and a concentration (10x MIC) that killed the bacteria, but not all of them. An overnight culture of P. aeruginosa PAO1 was regrown until exponential phase (1 mL, OD600 = 0.5) in 12.5% MH medium pH 7.4, treated with the compounds, in diluted MH medium (at pH 7.4) and incubated for 2 hours at 37 °C. Just before the samples were further prepared for the microscopy, surviving bacteria were quantified by plating 10-fold dilutions of samples in sterilized normal saline (NaCl 0.9 %) on LB agar plates. LB agar plates were incubated at 37 °C for 10 hours and the number of individual colonies was counted at each time-point, to monitor partial bacteria killing. The assay was performed in triplicates. Each bacteria sample was centrifuged at 12’000 rpm for 3 min and the supernatant was discarded. The samples were fixed overnight with 2.5% glutaraldehyde (Agar Scientific, Stansted, Essex, UK) in 0.15 M HEPES (Fluka, Buchs, Switzerland) with an osmolarity of 630 mOsm and adjusted to a pH of 7.44. […]

| SMILES | TEM pattern of treated P. aeruginosa cells |
| --- | --- |
| CCCCCCCC(=O)N(CCc1ccccc1)CC(=O)N[C@@H](CCCCN)C(=O)N[C@@H](CC(N)=O)C(=O)N[C@H]1CCNC(=O)[C@H](CCCCN)NC(=O)CN(CCCN)C(=O)[C@H](CCCCN)NC(=O)CN(CCC)C(=O)[C@H](CCCCN)NC1=O [EB12] (Octanoyl-[Gly(NCH2CH2Ph)]KN[Dab]K[NPrGly]K[Gly(N(CH2)3NH2)]K; lactam 4-C) | aggregation of intracellular contents |
| CCCCCCC(=O)N[C@H](C(=O)N(CCN)CC(=O)N(CCCc1ccccc1)CC(=O)N[C@H]1CCNC(=O)[C@H](CCCCN)NC(=O)CN(CCCN)C(=O)[C@H](CCCCN)NC(=O)CNC(=O)[C@H](CCCCN)NC1=O)C(C)C [EB13] (Heptanoyl-V[Gly(N-2-aminoethyl)][N(3-phenylpropyl)Gly][Dab]KGK[Gly(N(CH2)3NH2)]K; lactam 4-C) | aggregation of intracellular contents |
